8 compounds from PMC8326492, “Novel Mannich bases with strong carbonic anhydrases and acetylcholinesterase inhibition effects: 3-(aminomethyl)-6-{3-[4-(trifluoromethyl)phenyl]acryloyl}-2(3H)-benzoxazolones” (Turkish Journal of Chemistry, 2021) can be followed below.

One assay addresses hCA II (Homo sapiens, UniProt P00918). Briefly: Carbonic anhydrase inhibition assay (esterase, p-nitrophenylacetate), hCA II.
For another assay, the target named is T1, AChE (Electrophorus electricus, UniProt O42275).
T1 construct: AChE enzyme, obtained from electric eel; from tissue; host or cells: electric eel
T1 sequence (O42275 24-633): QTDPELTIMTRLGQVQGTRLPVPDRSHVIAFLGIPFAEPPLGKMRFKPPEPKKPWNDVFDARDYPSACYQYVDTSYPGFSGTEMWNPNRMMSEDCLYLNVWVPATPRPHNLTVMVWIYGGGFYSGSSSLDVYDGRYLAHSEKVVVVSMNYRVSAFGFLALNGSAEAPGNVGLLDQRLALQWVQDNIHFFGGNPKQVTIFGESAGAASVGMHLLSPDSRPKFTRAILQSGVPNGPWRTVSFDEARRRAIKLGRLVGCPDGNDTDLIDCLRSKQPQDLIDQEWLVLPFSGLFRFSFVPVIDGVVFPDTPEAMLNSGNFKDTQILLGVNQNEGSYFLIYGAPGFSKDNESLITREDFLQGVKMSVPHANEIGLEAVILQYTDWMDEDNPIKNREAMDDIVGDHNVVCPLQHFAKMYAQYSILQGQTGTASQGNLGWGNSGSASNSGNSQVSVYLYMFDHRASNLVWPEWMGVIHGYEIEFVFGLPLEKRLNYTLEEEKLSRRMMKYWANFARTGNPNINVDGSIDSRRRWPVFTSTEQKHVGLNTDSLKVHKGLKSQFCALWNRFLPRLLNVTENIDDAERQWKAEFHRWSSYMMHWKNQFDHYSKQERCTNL
The experiment in a line: biochemical. As to conditions: electric eel AChE; mean from three different assays. How it is done: Acetylcholinesterase enzyme inhibition assay was performed according to our previous studies. […] The substrates of acetylthiocholine iodide (AChI) and 5,5’-dithiobis(2-nitro-benzoic acid) (DTNB) was used for cholinergic enzymatic reaction. For this purpose, 1 mL of Tris / HCl buffer (1.0 M, pH 8.0) and 10 μL of different concentrations of sample solution were dissolved in deionized water. Then, an aliquot of (50 μL) AChE enzyme was transferred and incubated at room temperature for 10 min. After the incubation period, an aliquot of DTNB (0.5 mM, 50 μL) was added. Then, the enzymatic reaction was started by adding 50 μL of AChI (10 mM).

A further assay deals with hCA I (Homo sapiens, UniProt P00915). Briefly: biochemical.
hCA I, sequence (P00915 whole entry): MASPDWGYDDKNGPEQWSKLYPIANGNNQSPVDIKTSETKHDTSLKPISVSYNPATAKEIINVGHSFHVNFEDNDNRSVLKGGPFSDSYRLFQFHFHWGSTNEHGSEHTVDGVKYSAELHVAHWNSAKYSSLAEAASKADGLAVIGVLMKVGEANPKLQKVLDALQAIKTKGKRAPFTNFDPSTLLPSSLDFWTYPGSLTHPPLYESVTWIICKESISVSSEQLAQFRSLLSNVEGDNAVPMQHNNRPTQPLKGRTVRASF

The structures appear in SMILES notation.

Procedure for hCA II: CA inhibition assay was recorded according to previous studies [4,10,27,49,60–64]. The hCA I and II isoenzymes were purified from human red blood cells by sepharose-4B-L-tyrosine-sulfanilamide affinity chromatography [65], which was used as an affinity matrix for selective retention of both hCA isoenzymes [27,66]. […] After sepharose-4B-L-tyrosine-sulfanilamide affinity chromatography, the enzyme quantity was spectrophotometrically measured at 280 nm [68]. […] Purity controls of both CA isoenzymes were performed according to the Laemmli procedure as described in previous studies. Both isoenzymes were visualized by two different acrylamide concentrations (10% and 3% acrylamide), containing 0.1% sodium dodecyl sulfate (SDS) [69,70].

For orientation: Ki means a measure of affinity in units of concentration, obtained from inhibition or displacement. Lower therefore signals a stronger hold on the target. In the case of `O=C(/C=C/c1ccc(C(F)(F)F)cc1)c1ccc2[nH]c(=O)oc2c1` [Compound 1, (E )-6-{3-[4-(trifluoromethyl)phenyl]acryloyl}benzoxazol-2(3H )-one], the inhibition constant Ki on hCA II came to 0.0336 ± 0.0045 µM; on AChE it was 0.159 ± 0.0335 µM; on hCA I it was 0.154 ± 0.0093 µM.
The corresponding values for `CN(C)Cn1c(=O)oc2cc(C(=O)C=Cc3ccc(C(F)(F)F)cc3)ccc21` [Compound 1a, 3-[(Dimethylamino)methyl]-6-{3-[4-(trifluoromethyl)phenyl]acryloyl}benzoxazol-2(3H)-one] are 0.0233 ± 0.002 µM, 0.13 ± 0.0176 µM and 0.0314 ± 0.0053 µM.
For `CCN(CC)Cn1c(=O)oc2cc(C(=O)C=Cc3ccc(C(F)(F)F)cc3)ccc21` [Compound 1b, 3-[(Diethylamino)methyl]-6-{3-[4-(trifluoromethyl)phenyl]acryloyl}benzoxazol-2(3H)-one], in that order: 0.0376 ± 0.0043 µM, 0.142 ± 0.0221 µM and 0.0368 ± 0.0077 µM.
Take `CCCN(CCC)Cn1c(=O)oc2cc(C(=O)C=Cc3ccc(C(F)(F)F)cc3)ccc21` [Compound 1c, 3-[(Dipropylamino)methyl]-6-{3-[4-(trifluoromethyl)phenyl]acryloyl}benzoxazol-2(3H)-one]: the Ki stood at 0.0246 ± 0.0047 µM at hCA II, 0.116 ± 0.032 µM on AChE and 0.0223 ± 0.0023 µM at hCA I.
For `O=C(C=Cc1ccc(C(F)(F)F)cc1)c1ccc2c(c1)oc(=O)n2CN1CCCC1` [Compound 1d, 3-(Pyrrolidin-1-ylmethyl)-6-{3-[4-(trifluoromethyl)phenyl]acryloyl}benzoxazol-2(3H)-one], in that order: 0.019 ± 0.003 µM, 0.0976 ± 0.0144 µM and 0.0123 ± 0.0012 µM.
Take `O=C(C=Cc1ccc(C(F)(F)F)cc1)c1ccc2c(c1)oc(=O)n2CN1CCCCC1` [Compound 1e, 3-(Piperidin-1-ylmethyl)-6-(3-(4-(trifluoromethyl)phenyl)acryloyl)benzoxazol-2(3H)-one]: the Ki worked out at 0.0181 ± 0.0035 µM at hCA II, 0.084 ± 0.0192 µM at AChE and 0.0276 ± 0.0029 µM on hCA I.
For `O=C(C=Cc1ccc(C(F)(F)F)cc1)c1ccc2c(c1)oc(=O)n2CN1CCOCC1` [Compound 1f, 3-(Morpholinomethyl)-6-{3-[4-(trifluoromethyl)phenyl]acryloyl}benzoxazol-2(3H)-one], in that order: 0.041 ± 0.0055 µM, 0.0352 ± 0.002 µM and 0.0204 ± 0.0017 µM.
For `CN1CCN(Cn2c(=O)oc3cc(C(=O)C=Cc4ccc(C(F)(F)F)cc4)ccc32)CC1` [Compound 1g, 3-[(4-Methylpiperazin-1-yl)methyl]-6-{3-[4-(trifluoromethyl)phenyl]acryloyl} benzoxazol-2(3H)-one], in that order: 0.0086 ± 0.0019 µM, 0.0485 ± 0.0102 µM and 0.053 ± 0.0018 µM.
